Laboratory results: patent publication US10609906B2, “Apparatus and method of using a simulated skin substrate for testing insect repellants” (S. C. JOHNSON & SON, INC., priority 2016, dated 2020)

Legend:
mosquitoes [1] = experiment: arm-in-cage method with human research participants, laboratory, complete protection time; assay type: in vivo
From the text: When comparing the CPT data of skin-applied insect repellents, such as DEET, using the human surrogate apparatus 100 to the CPT data of skin-applied insect repellents obtained using human research participants via the arm-in-cage method (See Product Performance Test Guidelines OPPTS 810.3700: Insect Repellents to be Applied to Human Skin, United States Environmental Protection Agency, EPA 712-10-001, Jul. 7, 2010), data from both groups is very similar to each other as may be seen with reference to FIG. 5 in a controlled environment, e.g., a laboratory. Further, Table 1 illustrates the average CPT for the two methods based on differing weight percentages of the active ingredient DEET of the insect repellent, as well as the […] (“±SE”) at each weight percentage for the two groups. As may be seen, the differences between the experiments using human research participants via the arm-in-cage method and the experiments using the human surrogate apparatus 100 are statistically negligible.

wild mosquitoes = experiment: portable human surrogate apparatus 200, outdoor field test, complete protection time; assay type: in vivo; conditions: for CPT data with human surrogate apparatus 200 compared with voluntary human subjects group: outdoor field test
Method: The human surrogate apparatus of FIG. 1 is intended for use in a laboratory or controlled environment. Preferably, the controlled environment has a temperature range of between about 24° C. to about 30° C. and a range of relative humidity of between about 40% to about 60%. In contrast, FIGS. 2 and 3 illustrate an embodiment of a human surrogate apparatus 200 for testing the efficacy of a skin-applied insect repellent in the field. By fashioning the human surrogate apparatus 200 to be portable, the apparatus may be used in any number of real world environments. The human surrogate apparatus 200 therefore provides the advantage of similar testing efficacy as human testing, but without exposure to mosquitoes or other insects found in the field.
With reference still to FIGS. 2 and 3, the human surrogate apparatus 200 is disposed in an outdoor environment, with an identified population of biting insects. The portable human surrogate apparatus 200 is provided with a housing 202 having a power supply line 204 connected thereto. In some embodiments, a power supply 206 is located remotely from the housing 202 to provide power to the human surrogate apparatus 200. Alternatively, or in addition, a local power supply is provided within or attached to the housing 202. In such an embodiment, the power supply line 204 may be omitted, provided within the housing 202, or otherwise fashioned differently within the housing 202 to allow energy to reach electrical components thereof
With reference to FIG. 3, the human surrogate apparatus 200 includes a heater 208 in electrical communication with the power supply 206. In the present embodiment, the heater 208 is a silicone-rubber heating blanket, manufactured by BriskHeat Corporation, Columbus, OH. A non-collagen based, non-biological substrate 210 is also provided and is exposed to the ambient environment. In certain embodiments the non-collagen based, non-biological substrate 210 may be synthetic.
In the present embodiment, the substrate 210 is securely fastened to the portable human surrogate apparatus 200 by magnetic strips 212, or may be fastened by any other suitable means. In some embodiments a temperature buffering device 214 is provided beneath the substrate 210, which assists in transmitting heat from the heater 208 and maintains the substrate 210 at a predetermined temperature. In the present embodiment, the temperature buffering device 214 is a water bath, enclosed in a container 220, which is made of materials that prevent water leakage and that transmit heat at the same time. Moreover, the portable human surrogate apparatus 200 is connected to a CO2 source 216, which may be remote from the housing 202, attached to the housing 202, or otherwise retained within the housing 202. In the present embodiment, the CO2 source 216 delivers CO2 at a rate of between about 400 mL/min (14 oz/min) to about 600 mL/min (20.3 oz/min).
It has also been experimentally determined that the human surrogate apparatuses described herein perform consistently in a controlled environment, e.g., a laboratory with predetermined and controllable conditions, and in an uncontrolled environment, e.g., in an outdoor field test. With reference to FIG. 8 and Table 3, the CPT in hours obtained from testing 7% weight percentage DEET repellent efficacy in the laboratory and obtained from the field is similar.
Similarly, for testing substance picaridin (referring to FIGS. 11A-11C) and PMD (referring to FIGS. 12A-12C), the CPT data (including average CPT) in the human surrogate apparatus 200 group shares overlapping confidence intervals with the CPT data in the field test group using the voluntary human subjects.

adult female mosquitoes = experiment: human surrogate apparatus 100 (Vitro-Skin skin substitute substrate), laboratory, complete protection time; assay type: in vivo, Aedes aegypti; conditions: for Predicted percent DEET concentration (±SE): inverse prediction from model; for CPT data with human surrogate apparatus 100 compared with arm-in-cage group: 10% by weight, laboratory
From the text: With reference to FIG. 4, a method of using the human surrogate apparatus 100 is explained.
In certain embodiments, different test substances contain different concentrations of testing insect repellent. The concentration of testing insect repellent can be measured by weight percentage or by volume percentage of the testing insect repellent diluted in ethanol or in any other suitable diluents. […] Further, in the present embodiment, regardless of the concentration of the repellent, the combined mass of the repellent and ethanol is about 0.19 g. In other experiments, the combined mass of the repellent(s) and the diluent(s) is greater or less than about 0.19 g, but similarly stays the same independent of the concentration of the repellent. With different sets of experiments, the amount of skin-applied test substance used in the testing is based on the size of the substrate and the properties of different testing insect repellents, such as the active ingredient dosage.
This cycle of exposure-withdrawal-exposure is repeated until one or more biting insects land on the treated substrate for equal to or longer than 2 seconds.

[2] = surface wetting of insect repellent actives on hydrated skin substitute substrate; assay type: physicochemical; conditions: for surface wetting on skin substitute substrate: ethanol solutions containing 5%, 10%, 15%, and 25% of the active; for surface wetting on hydrated skin substitute substrate: insect repellant active as such
From the text: Additionally, the surface wetting of insect repellents on the skin substitute substrate should be close to the surface wetting of insect repellents on human skin. The term “wetting” refers to the ease with which a substance can intimately contact and spread over a given substrate. There are a variety of forces (ionic, static, polar, van der Waals etc.) acting between the substance and the substrates that ensure good bonding. Good wetting provides a larger area of contact where these forces may act. Consequently, good wetting is crucial for good bond formation. […] Complete wetting is achieved when the contact angle between the liquid and the solid surface is approaching or is substantially zero. […] The interaction of ethanol solutions containing 5%, 10%, 15%, and 25% of each aforementioned active substance and the tested skin substitute substrate was also tested. […] Due to this degree of wetting between the insect repellent active and the tested skin substitute substrate, the desired bonding between the active and the tested skin substitute substrate is achieved. As a result, the insect repellent remains on the skin substitute substrate for a duration similar to that of human skin.

mosquitoes [3] = experiment: arm-in-cage method with human research participants, laboratory, complete protection time; assay type: in vivo; conditions: inverse prediction from model
[4] = 7% DEET in EtOH, Field, human surrogate apparatus
[5] = 7% DEET in EtOH, Lab, human surrogate apparatus
[6] = 7% DEET in ethanol, Human Skin Surrogate
[7] = 15% DEET in ethanol, Human Skin Surrogate
[8] = 20% DEET in ethanol, Human Skin Surrogate
[9] = 25% DEET in ethanol, Human Skin Surrogate
[10] = 30% DEET in ethanol, Human Skin Surrogate

For `CCN(CC)C(=O)c1cccc(C)c1` [DEET, N,N-Diethyl-3-methylbenzamide], which “Complete protection time (median)” value (mosquitoes [1]; 7% DEET in ethanol) is on record?
Its value is 2.3 h.

What about the “Complete protection time Mean ± SE” value (mosquitoes [1]; 7% DEET in ethanol) of the same molecule?
Its value is 2.5 ± 0.7 h.

What about the “Complete protection time (median)” value (mosquitoes [1]; 15% DEET in ethanol) of the same molecule?
Its value is 3.5 h.

And the “Complete protection time Mean ± SE” value (mosquitoes [1]; 15% DEET in ethanol)?
The value was 3.9 ± 1.5 h.

What about the “Complete protection time (median)” value (mosquitoes [1]; 20% DEET in ethanol) of the same molecule?
Its value is 3.8 h.

What about the “Complete protection time Mean ± SE” value (mosquitoes [1]; 20% DEET in ethanol) of the same molecule?
The value was 4.9 ± 2.1 h.

What about the “Complete protection time (median)” value (mosquitoes [1]; 25% DEET in ethanol) of the same molecule?
Its value is 6.8 h.

What about the “Complete protection time Mean ± SE” value (mosquitoes [1]; 25% DEET in ethanol) of the same molecule?
Its value is 6.5 ± 1.4 h.

What about the “Complete protection time (median)” value (mosquitoes [1]; 30% DEET in ethanol) of the same molecule?
The value was 6.6 h.

What about the “Complete protection time Mean ± SE” value (mosquitoes [1]; 30% DEET in ethanol) of the same molecule?
Its value is 6.6 ± 0.7 h.

And the “Complete protection time (median)” value (wild mosquitoes; [4])?
Its value is 2.0 h.

What about the “Complete protection time Mean ± SE” value (wild mosquitoes; [4]) of the same molecule?
The value was 2.0 ± 0.4 h.

And the “Complete protection time Range” value (wild mosquitoes; [4])?
The value was 1.5 to 2.5 h.

And the “CPT data with human surrogate apparatus 200 compared with voluntary human subjects group” value (wild mosquitoes)?
Its value is “not significantly different”.

What about the “Complete protection time (median)” value (adult female mosquitoes; [5]) of the same molecule?
The value was 2.0 h.

And the “Complete protection time Mean ± SE” value (adult female mosquitoes; [5])?
The value was 2.2 ± 0.9 h.

What about the “Complete protection time Range” value (adult female mosquitoes; [5]) of the same molecule?
The value was 1.0 to 3.5 h.

And the “Complete protection time (median)” value (adult female mosquitoes; [6])?
Its value is 2.0 h.

And the “Complete protection time Mean ± SE” value (adult female mosquitoes; [6])?
Its value is 2.2 ± 0.9 h.

And the “Complete protection time (median)” value (adult female mosquitoes; [7])?
The value was 3.3 h.

And the “Complete protection time Mean ± SE” value (adult female mosquitoes; [7])?
The value was 3.6 ± 1.0 h.

And the “Complete protection time (median)” value (adult female mosquitoes; [8])?
The value was 5.3 h.

And the “Complete protection time Mean ± SE” value (adult female mosquitoes; [8])?
The value was 4.9 ± 2.1 h.

And the “Complete protection time (median)” value (adult female mosquitoes; [9])?
The value was 6.5 h.

What about the “Complete protection time Mean ± SE” value (adult female mosquitoes; [9]) of the same molecule?
The value was 6.3 ± 1.1 h.

What about the “Complete protection time (median)” value (adult female mosquitoes; [10]) of the same molecule?
The value was 7.0 h.

What about the “Complete protection time Mean ± SE” value (adult female mosquitoes; [10]) of the same molecule?
The value was 6.5 ± 2.3 h.

What about the “Predicted percent DEET concentration (±SE)” value (adult female mosquitoes; for complete protection time 1 h, Human Skin Surrogate) of the same molecule?
Its value is 3.81 ± 1.72%.

What about the “Predicted percent DEET concentration (±SE)” value (adult female mosquitoes; for complete protection time 2 h, Human Skin Surrogate) of the same molecule?
The value was 8.17 ± 1.16%.

What about the “Predicted percent DEET concentration (±SE)” value (adult female mosquitoes; for complete protection time 3 h, Human Skin Surrogate) of the same molecule?
Its value is 11.92 ± 1.04%.

And the “Predicted percent DEET concentration (±SE)” value (adult female mosquitoes; for complete protection time 4 h, Human Skin Surrogate)?
Its value is 15.71 ± 1.13%.

What about the “Predicted percent DEET concentration (±SE)” value (adult female mosquitoes; for complete protection time 5 h, Human Skin Surrogate) of the same molecule?
The value was 20.00 ± 1.21%.

What about the “Predicted percent DEET concentration (±SE)” value (adult female mosquitoes; for complete protection time 6 h, Human Skin Surrogate) of the same molecule?
The value was 25.55 ± 1.58%.

What about the “surface wetting on skin substitute substrate” value [2] of the same molecule?
Its value is “substantially complete wetting”.

What about the “surface wetting on hydrated skin substitute substrate” value [2] of the same molecule?
The value was “substantially complete wetting”.

And the “Predicted percent DEET concentration (±SE)” value (mosquitoes [3]; for complete protection time 1 h)?
The value was 1.61 ± 1.69%.

And the “Predicted percent DEET concentration (±SE)” value (mosquitoes [3]; for complete protection time 2 h)?
Its value is 6.15 ± 0.94%.

What about the “Predicted percent DEET concentration (±SE)” value (mosquitoes [3]; for complete protection time 3 h) of the same molecule?
The value was 10.07 ± 0.88%.

And the “Predicted percent DEET concentration (±SE)” value (mosquitoes [3]; for complete protection time 4 h)?
Its value is 14.08 ± 1.15%.

What about the “Predicted percent DEET concentration (±SE)” value (mosquitoes [3]; for complete protection time 5 h) of the same molecule?
Its value is 18.70 ± 1.46%.

What about the “Predicted percent DEET concentration (±SE)” value (mosquitoes [3]; for complete protection time 6 h) of the same molecule?
Its value is 24.85 ± 2.64%.

For `CC1CCC(C(C)(C)O)C(O)C1` (stereo not shown) [PMD, para-menthane-3,8-diol], which “CPT data with human surrogate apparatus 200 compared with voluntary human subjects group” value (wild mosquitoes) is on record?
The value was “No statistically significant difference”.

And the “CPT data with human surrogate apparatus 100 compared with arm-in-cage group” value (adult female mosquitoes)?
The value was “not significantly different”.

And the “surface wetting on skin substitute substrate” value [2]?
The value was “substantially complete wetting”.

And the “surface wetting on hydrated skin substitute substrate” value [2]?
The value was “substantially complete wetting”.

Which “CPT data with human surrogate apparatus 200 compared with voluntary human subjects group” value (wild mosquitoes) does the source give for `CCC(C)OC(=O)N1CCCCC1CCO` (stereo not shown) [picaridin, 2-(2-hydroxyethyl)-1-piperidinecarboxylic acid 1-methylpropyl ester] here?
The value was “No statistically significant difference”.

What about the “CPT data with human surrogate apparatus 100 compared with arm-in-cage group” value (adult female mosquitoes) of the same molecule?
The value was “within the range of CPT data points of the group employing the arm-in-cage method”.

And the “surface wetting on skin substitute substrate” value [2]?
The value was “substantially complete wetting”.

What about the “surface wetting on hydrated skin substitute substrate” value [2] of the same molecule?
Its value is “substantially complete wetting”.
